Measurements taken from PubChem BioAssay (NCI).
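Grown in 96-well plates, cells were treated for 48 hours with each compound at five concentrations. Insufficient inhibition: endpoint recorded as highest concentration tested. Definition used: TGI = concentration required for complete inhibition of growth.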

Key:
Experiment in all cases: NCI anticancer screen, dose series, 48 h
[1] = test system: HS 578T breast
[2] = test system: MDA-MB-435
[3] = test system: SNB-19 CNS
[4] = test system: HOP-62 NSCLC
[5] = test system: OVCAR-4 ovarian
[6] = test system: K-562 leukemia
[7] = test system: BT-549 breast
[8] = test system: ACHN renal
[9] = test system: RPMI-8226 leukemia
[10] = test system: NCI/ADR-RES ovarian
[11] = test system: MALME-3M melanoma
[12] = test system: MDA-MB-231 breast
[13] = test system: KM12 colon
[14] = test system: HCT-15 colon
[15] = test system: TK-10 renal
[16] = test system: T-47D breast
[17] = test system: HCC-2998 colon
[18] = test system: OVCAR-3 ovarian
[19] = test system: HL-60(TB) leukemia
[20] = test system: EKVX NSCLC

| SMILES | TGI [1] [µM] | TGI [2] [µM] | TGI [3] [µM] | TGI [4] [µM] | TGI [5] [µM] | TGI [6] [µM] | TGI [7] [µM] | TGI [8] [µM] | TGI [9] [µM] | TGI [10] [µM] | TGI [11] [µM] | TGI [12] [µM] | TGI [13] [µM] | TGI [14] [µM] | TGI [15] [µM] | TGI [16] [µM] | TGI [17] [µM] | TGI [18] [µM] | TGI [19] [µM] | TGI [20] [µM] |
| --- | --- | --- | --- | --- | --- | --- | --- | --- | --- | --- | --- | --- | --- | --- | --- | --- | --- | --- | --- | --- |
| COc1cc([C@@]23OC[C@@H]4[C@@H](OC[C@@H]42)c2cc4c(cc23)OCO4)cc(OC)c1OC | 10.5 | > 100 | > 100 | > 100 | > 100 | > 100 | > 66.4 | > 100 | > 77.1 | < 0.01 | > 100 | < 0.01 | > 100 | > 100 | > 100 | > 100 | 0.0241 |  |  |  |
| COC1=CC(=O)c2c(c(COP(=O)(N(C)CCBr)N(C)CCBr)cn2C)C1=O | 2.93 | 0.222 | 3.76 | 0.776 | 3 |  | 0.616 | 0.0728 | 0.441 | 1.71 | 0.291 | 1.07 | 1.07 | 0.193 | 0.496 | 19 | 0.192 | 0.877 | > 100 | 0.578 |
| COc1ccccc1N=N/C(=N\NC(=O)c1ccc(C)cc1)c1ccc(N(CCC#N)CCC#N)cc1C | > 100 | > 100 | > 100 | > 100 | > 100 | > 100 | > 100 | > 100 | > 100 | > 100 | 77.4 | > 100 | > 100 | > 100 | > 100 | > 100 | > 100 | 61.9 |  | > 100 |
| CC1(C)C2CC3C4CC5(Nc6ccccc6C5N41)[C@]3(C)CC2=O (stereo partly specified) | > 50 | > 50 |  | > 50 | > 50 | > 50 | > 50 | > 50 | > 50 | > 50 | > 50 | > 50 | > 50 | > 50 | > 50 | 33.3 | > 50 | > 50 | > 50 | > 50 |
| Nc1c(N2CCOCC2)c(=O)nc2[nH]/c(=C\c3ccccc3)c(=O)n12 | > 100 | > 100 | > 100 |  | > 100 | 93 |  | > 100 | > 100 | > 100 | > 100 | > 100 | > 100 | > 100 | > 100 | > 100 | > 100 |  | 57.3 | > 100 |
| CN(C)CCn1c(=O)c2ccc3c4c(nn3CCN(C)C)c3cc([N+](=O)[O-])ccc3n(c1=O)c24 | 2.82 | 0.219 | 1.08 | 0.974 | 0.223 |  | 3.34 | 0.975 | 0.397 | 0.701 | 1.12 | 0.491 | 0.433 | 0.745 | 2.01 | 10.8 | 0.207 | 2.26 | 0.638 | 0.434 |
| Cc1ccc(N2CCN(CCC(=O)O)CC2)cc1 | > 100 | > 100 | > 100 | > 100 | > 100 | > 100 | > 100 | > 100 | > 100 | > 100 | > 100 | > 100 | > 100 | > 100 | > 100 | > 100 |  | > 100 |  | > 100 |
| Fc1cccc(Cl)c1C1SCc2nc3cc4ccccc4cc3n21 (stereo unspecified) | > 100 | > 100 | > 100 | > 100 | > 100 | > 100 | > 100 | > 100 | > 100 | > 100 | > 100 | > 100 | > 100 | > 100 | > 100 | > 100 | > 100 | > 100 |  | > 100 |
| COC(=O)c1ccccc1/C=C1\Cc2c(C)cc(C)cc2C1=O | > 100 |  | > 100 | > 100 | > 100 | > 100 | > 100 | > 100 | > 100 |  | > 100 | > 100 | > 100 | > 100 | > 100 | > 100 | > 100 | > 100 | > 100 | > 100 |
| O=C(NCCN1CCCCC1)c1ccc(I)cc1 | > 100 | > 100 | > 100 | > 100 | > 100 | > 100 | > 100 | > 100 | > 100 | > 100 | > 100 | > 100 | > 100 | > 100 | > 100 | > 100 | > 100 | > 100 |  | > 100 |
| C=C1C(=O)OC2CC(=C)C3CC=C(C)C3CC12 (stereo unspecified) | > 100 | 32.6 | 54.5 | > 100 | > 100 | 24.4 | 59.7 | 47.8 | > 100 | > 100 |  | 63.7 | > 100 | 36.7 | 34.4 | 37.1 | 43.3 | 91.9 | 87.1 | > 100 |
| CN(C)C=NCCN1CCOCC1 | > 100 | > 100 | > 100 | > 100 | > 100 | > 100 | > 100 | > 100 | > 100 | > 100 | > 100 | > 100 |  | > 100 | > 100 | > 100 |  | > 100 | > 100 | > 100 |
